# Assay results taken from PubChem BioAssay (NCI).
# Values joined by “and” are separate entries in the source; they are usually repeats but may differ in a detail not shown here. Equal entries are not always repeated.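 Cells were grown in 96-well plates and exposed to each compound for 48 hours at five concentrations; endpoints were interpolated linearly between bracketing concentrations, or set to the highest concentration if not reached. The concentration for 50% growth inhibition is given as GI50. TGI is the concentration that stops growth completely.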
# Key:
# Experiment in all cases: NCI-60 cell line screen, 48 h
# NCI-H460 lung = tested on: NCI-H460 lung
# EKVX NSCLC = tested on: EKVX NSCLC
# OVCAR-4 ovarian = tested on: OVCAR-4 ovarian
# K-562 leukemia = tested on: K-562 leukemia
# HOP-62 NSCLC = tested on: HOP-62 NSCLC
# SK-MEL-5 melanoma = tested on: SK-MEL-5 melanoma
# HL-60(TB) leukemia = tested on: HL-60(TB) leukemia
# SNB-75 CNS = tested on: SNB-75 CNS
# HS 578T breast = tested on: HS 578T breast
# PC-3 prostate = tested on: PC-3 prostate
SMILES,TGI (NCI-H460 lung),TGI (EKVX NSCLC),TGI (OVCAR-4 ovarian),TGI (K-562 leukemia),TGI (HOP-62 NSCLC),TGI (SK-MEL-5 melanoma),TGI (HL-60(TB) leukemia),TGI (SNB-75 CNS),TGI (HS 578T breast),TGI (PC-3 prostate),GI50 (NCI-H460 lung),GI50 (EKVX NSCLC),GI50 (OVCAR-4 ovarian),GI50 (K-562 leukemia),GI50 (HS 578T breast),GI50 (HOP-62 NSCLC),GI50 (SK-MEL-5 melanoma),GI50 (HL-60(TB) leukemia),GI50 (PC-3 prostate),GI50 (SNB-75 CNS)
N=C(N)SCc1cn2ccccc2n1,> 100 µM,> 100 µM,> 100 µM,> 100 µM,> 100 µM,> 100 µM,> 100 µM,> 100 µM,,,,,,,,,,,,
C/C(=N/N(C=O)C[n+]1ccccc1)C(CN(CC(C)C)CC(C)C)C(=O)Nc1ccc(C)cc1C (stereo not drawn),> 100 µM,> 100 µM,> 100 µM,> 100 µM,> 100 µM,> 100 µM,> 100 µM,,,,,,,,,,,,,
CON(C)C(=O)C(C)NC(=O)OCc1ccccc1 (stereo not drawn),> 100 µM,> 100 µM,,> 100 µM,> 100 µM,> 100 µM,> 100 µM,> 100 µM,> 100 µM,> 100 µM,,,,,,,,,,
COc1ccc(C(C2=C(C)C(=O)c3ccccc3C2=O)c2ccc(C(C)C)cc(=O)c2O)cc1 (stereo not drawn),12.6 µM,,> 100 µM,> 100 µM,6.65 µM,15.2 µM,10.6 µM,6.47 µM,,,,,,,,,,,,
O=C(C(=O)c1ccc(Cc2ccc(C(=O)C(=O)c3ccccc3)cc2)cc1)c1ccccc1,> 100 µM,> 100 µM,> 100 µM,> 100 µM,> 100 µM,> 100 µM,> 100 µM,> 100 µM,,,,,,,,,,,,
CC[C@H](C)[C@H](NC(=O)c1cnccn1)C(=O)N(C)[C@H](C[C@@H](OC(C)=O)c1nc(C(=O)N[C@@H](Cc2ccccc2)C[C@H](C)C(=O)OC)cs1)C(C)C,> 33.3 µM,> 33.3 µM,> 33.3 µM,> 33.3 µM,> 33.3 µM,2.87 µM,2.24 µM,,10.6 µM,> 33.3 µM,1.15 µM,1.75 µM,2.52 µM,0.662 µM,0.941 µM,1.88 µM,0.809 µM,0.9 µM,1.36 µM,
Cc1cc(O)c2c(c1)C(O)(c1ccc3c(c1O)C(=O)c1c(O)cc(C)cc1C3(O)C1OC(CO)C(O)C(O)C1O)c1cccc(O)c1C2=O (stereo not drawn),27.9 µM,28.2 µM,26.4 µM,18.9 µM,28.9 µM,33 µM,46.8 µM,27.5 µM,,,,,,,,,,,,
Nc1nc2c(ncn2Cc2ccccc2CCO)c(=O)[nH]1,> 100 µM,> 100 µM,> 100 µM,> 100 µM,> 100 µM,> 100 µM,> 100 µM,> 100 µM,,,,,,,,,,,,
Cc1cc(Cl)ccc1NC(=O)C(=O)Cc1nc2ccc(C(=O)c3ccccc3)cc2[nH]c1=O,> 100 µM,> 100 µM,> 100 µM,,> 100 µM,> 100 µM,> 100 µM,> 100 µM,,,,,,,,,,,,
CC12CC3(C)CC(C)(C1)CC(N=[N+]=[N-])(C2)C3,> 100 µM,> 100 µM,> 100 µM,> 100 µM,> 100 µM,> 100 µM,,> 100 µM,,,,,,,,,,,,
COc1cc2nncc(Sc3cnnc4ccccc34)c2cc1OC,50.4 µM,> 100 µM,> 100 µM,> 100 µM,> 100 µM,29.5 µM,70.5 µM,,,,,,,,,,,,,
CSc1nc2c(c(O)c(C)c(=O)n2C2OC(COC(C)=O)C(OC(C)=O)C(OC(C)=O)C2OC(C)=O)c(=O)n1C (stereo not drawn),> 100 µM,> 100 µM,> 100 µM,> 100 µM,> 100 µM,> 100 µM,> 100 µM,> 100 µM,,,,,,,,,,,,
O=c1nc(-c2ccccc2)c2c3c(cccn13)CCC2,> 100 µM,,> 100 µM,> 100 µM,> 100 µM,> 100 µM,> 100 µM,> 100 µM,,,,,,,,,,,,
COc1cc(C2c3cc4c(cc3[C@@H](Nc3ccc(N(C)C)cc3)[C@H]3COC(=O)C23)OCO4)cc(OC)c1O (stereo partly drawn),1.88 µM and 10.4 µM,9.57 µM and 9.64 µM,18.7 µM and 25.8 µM,75 µM and 36.8 µM,0.385 µM and 1.23 µM,2.46 µM and 4.52 µM,2.51 µM,9.26 µM and 10.9 µM,,,< 0.0075 µM,2.37 µM,13 µM,2.41 µM,,0.187 µM,1.12 µM,,,0.881 µM
O=C(c1ccccc1)c1c(CC(O)c2cccnc2)n(C(=O)c2ccccc2)c2ccccc12 (stereo not drawn),36.4 µM,,42.4 µM,75.7 µM,30.4 µM,31 µM,49 µM,32.4 µM,,,,,,,,,,,,
CC[O-].CC[O-].O=C1C(=C([O-])c2ccccc2)C(=O)c2ccccc21.O=C1C(=C([O-])c2ccccc2)C(=O)c2ccccc21.[Ti+4],> 100 µM,> 100 µM,> 100 µM,> 100 µM,> 100 µM,> 100 µM,> 100 µM,> 100 µM,,,42.9 µM,24.3 µM,> 100 µM,> 100 µM,,> 100 µM,> 100 µM,> 100 µM,,> 100 µM
O=C1[C@@H](c2ccc(Cl)cc2)[C@H]2CC=C[C@H]2N1O,,> 100 µM,,> 100 µM,> 100 µM,> 100 µM,> 100 µM,> 100 µM,,,,,,,,,,,,
CC(=O)c1cccc(N(/C=C/C(=O)C(F)(F)F)CC(=O)c2ccc(Cl)cc2)c1,> 100 µM,> 100 µM,> 100 µM,> 100 µM,> 100 µM,> 100 µM,,,> 100 µM,> 100 µM,> 100 µM,> 100 µM,> 100 µM,> 100 µM,> 100 µM,> 100 µM,> 100 µM,,> 100 µM,
CC1(C)C(=O)C(O)=CC2C1=CCC1C2(C)C(=O)CC2(C)C(C(C)(O)C(=O)CC(O)C(C)(C)O)C(O)CC12C (stereo not drawn),56.5 µM,38.8 µM,11.8 µM,> 80.2 µM,11.5 µM,8.53 µM,11.6 µM,4.77 µM,,,,,,,,,,,,1.74 µM
CC[N+]1(C)CCC(O)(c2ccc(C)cc2)C(C(=O)c2ccc(C)cc2)C1 (stereo not drawn),> 100 µM,> 100 µM,86.3 µM,37.5 µM,> 100 µM,> 100 µM,> 100 µM,,> 100 µM,> 100 µM,,,,,,,,,,
COC(=O)C1=CCON(c2ccccc2)C1c1ccccc1 (stereo not drawn),> 100 µM,> 100 µM,,> 100 µM,> 100 µM,,61.7 µM,> 100 µM,,,,,,,,,,,,
